Results reported in ChEMBL document CHEMBL1201862, “PubChem BioAssay data set” (2004).
Activity calls are given as the source filed them.

Tests used:
[1] = target: Voltage-dependent T-type calcium channel subunit alpha-1H (Homo sapiens, UniProt O95180); format: functional;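 note: channel activity triggered by adding a high calcium stimulation buffer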
[2] = A549 cell cytotoxicity, dose response, cytotoxicity control, plate reader, cherry-pick, antagonist series (AID 743412); format: functional, cell-based
[3] = viability loss in HEK293 cells – cell-based, plate reader, cherry-picked samples, cytotoxicity control, dose response (AID 743446); format: functional
[4] = toxicity toward HepG2 liver cells – cell-based, plate reader, cherry-pick, antagonist series, cytotoxicity control, dose response (AID 743416); format: functional
[5] = blockade of melanocortin 4 receptor signaling – cell-based, plate reader, cherry pick, counter-screen for LGR2 antagonist project, dose response (AID 743444); format: functional;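 note: transfected HEK 293 cells stimulated with alpha-MSH peptide; potency of inhibitors of the alpha-MSH evoked signal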
[6] = Vero E6 cell cytotoxicity, dose response, cytotoxicity control for non-replicating M. tuberculosis project, secondary assay (AID 492998); format: functional, VeroE6; conditions: Vero C1008
[7] = THP-1 cell cytotoxicity, dose response, cytotoxicity control for non-replicating M. tuberculosis project (AID 489025); format: functional
[8] = system: INS1; assay: INS-1E survival protection against cytokine death – cell-based, luminescence, retest, dose response (AID 449756); format: functional; conditions: Rattus norvegicus;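 note: cell death triggered by IL-1 beta plus TNF-alpha plus IFN-gamma mixture; protective hits raise ATP signal compared with cytokine alone wells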
[9] = cells; format: functional
[10] = HepG2 cell cytotoxicity, dose response, cytotoxicity control for non-replicating M. tuberculosis project (AID 489018); format: functional; conditions: Mycobacterium tuberculosis
[11] = target: Troponin, cardiac muscle (Homo sapiens, UniProt P19429+P45379+P63316); assay: Fluorescence-based biochemical high throughput dose response assay for activators of the calcium sensitivity of cardiac Regulated Thin Filaments (RTF). [Related pubchem assays (depositor defined):AID493008, AID493018, AID504382, AID504383]; format: protein-complex assay
[12] = target: Protein-tyrosine kinase 2-beta (Homo sapiens, UniProt Q14289);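 note: potency of inhibitors of PYK2 kinase phosphorylation of poly-GT substrate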
[13] = target: Estrogen receptor beta (Homo sapiens, UniProt Q92731); assay: blockers of SRC-3 recruitment to ERβ – biochemical, ELISA, streptavidin-HRP readout, orthogonal assay, confirmation (AID 1060)
[14] = viability of uninfected HEp-2 cells – cell-based, HTS, cytotoxicity control for RSV inhibitor project, dose response (AID 2410); format: functional; conditions: human respiratory syncytial virus
[15] = target: T1, SUMO-activating enzyme (Homo sapiens, UniProt Q9UBT2); assay: blockers of SAE1/SAE2–UBC9 SUMO transfer – biochemical, HTRF, uHTS, primary screen (AID 2006); format: protein-complex assay
[16] = target: T1, SUMO-activating enzyme; assay: blockers of UBC9-mediated SUMO conjugation – biochemical, AlphaScreen, SUMOylation inhibitor project, confirmation (AID 2018); format: functional
[17] = target: T2, E3 ubiquitin-protein ligase XIAP (Homo sapiens, UniProt P98170); assay: small molecules displacing peptide from XIAP – biochemical, IAP family, fluorescence polarization (AID 1018); format: functional
[18] = target: T2, E3 ubiquitin-protein ligase XIAP; assay: Counter Screen using XIAP-Bir3 for Chemical Antagonists of Bir1/2 domains of IAP-family anti-apoptotic proteins. [Related pubchem assays (depositor defined):AID1018, AID1449, AID1514, AID1638, AID1749, AID1750, AID488957, AID488963]
[19] = target: T3, Protein skinhead-1 (Caenorhabditis elegans, UniProt P34707); format: functional
T3 sequence (P34707 whole entry): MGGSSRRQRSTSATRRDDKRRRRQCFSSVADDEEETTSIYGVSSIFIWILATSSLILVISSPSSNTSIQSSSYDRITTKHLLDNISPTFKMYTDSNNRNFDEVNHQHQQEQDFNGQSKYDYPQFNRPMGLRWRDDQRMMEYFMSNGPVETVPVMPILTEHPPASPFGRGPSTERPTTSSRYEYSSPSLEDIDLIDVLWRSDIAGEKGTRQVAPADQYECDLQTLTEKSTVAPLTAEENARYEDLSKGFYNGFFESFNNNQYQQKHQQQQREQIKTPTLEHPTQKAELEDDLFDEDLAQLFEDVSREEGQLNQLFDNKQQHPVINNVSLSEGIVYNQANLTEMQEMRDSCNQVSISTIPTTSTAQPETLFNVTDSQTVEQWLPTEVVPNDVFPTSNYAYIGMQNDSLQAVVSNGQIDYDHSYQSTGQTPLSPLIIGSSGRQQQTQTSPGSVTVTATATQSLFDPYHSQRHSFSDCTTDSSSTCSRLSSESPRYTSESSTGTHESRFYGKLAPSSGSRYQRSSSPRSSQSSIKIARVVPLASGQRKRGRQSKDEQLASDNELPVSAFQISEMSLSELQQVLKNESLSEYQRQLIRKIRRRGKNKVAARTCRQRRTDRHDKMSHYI

[20] = target: T4, Short transient receptor potential channel 4 (Mus musculus, UniProt Q9QUQ5); assay: calcium entry via TRPC4 opening agents – cell-based, HEK293 TRPC4/mu-opioid, Fluo-4 calcium, dose response (AID 434937); format: functional
T4 sequence (Q9QUQ5 whole entry): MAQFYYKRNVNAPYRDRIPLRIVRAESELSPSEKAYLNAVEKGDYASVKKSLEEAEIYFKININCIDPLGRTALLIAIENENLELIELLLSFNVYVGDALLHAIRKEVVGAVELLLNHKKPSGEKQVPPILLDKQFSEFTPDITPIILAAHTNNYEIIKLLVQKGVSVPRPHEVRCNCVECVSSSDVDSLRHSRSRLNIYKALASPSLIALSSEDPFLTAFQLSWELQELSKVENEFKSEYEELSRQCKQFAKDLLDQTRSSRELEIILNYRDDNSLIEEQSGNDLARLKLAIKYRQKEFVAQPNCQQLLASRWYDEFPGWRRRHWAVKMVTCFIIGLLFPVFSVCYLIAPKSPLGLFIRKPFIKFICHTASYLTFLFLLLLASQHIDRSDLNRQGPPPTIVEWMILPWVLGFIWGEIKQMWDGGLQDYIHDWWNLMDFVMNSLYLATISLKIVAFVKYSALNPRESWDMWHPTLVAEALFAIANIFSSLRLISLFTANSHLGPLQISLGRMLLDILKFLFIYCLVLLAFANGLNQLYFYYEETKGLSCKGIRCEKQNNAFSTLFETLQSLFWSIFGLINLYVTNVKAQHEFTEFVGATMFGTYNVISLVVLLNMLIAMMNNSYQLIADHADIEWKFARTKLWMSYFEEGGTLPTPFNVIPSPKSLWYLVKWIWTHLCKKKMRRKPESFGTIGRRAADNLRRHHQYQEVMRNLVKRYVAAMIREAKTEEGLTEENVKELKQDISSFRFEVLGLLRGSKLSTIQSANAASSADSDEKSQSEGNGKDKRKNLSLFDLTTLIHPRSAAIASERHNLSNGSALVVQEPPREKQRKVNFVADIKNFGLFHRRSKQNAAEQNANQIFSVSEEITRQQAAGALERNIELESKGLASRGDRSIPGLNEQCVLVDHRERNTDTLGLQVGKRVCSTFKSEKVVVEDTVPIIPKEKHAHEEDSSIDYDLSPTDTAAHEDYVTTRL

Protein-tyrosine kinase 2-beta, sequence (Q14289 whole entry): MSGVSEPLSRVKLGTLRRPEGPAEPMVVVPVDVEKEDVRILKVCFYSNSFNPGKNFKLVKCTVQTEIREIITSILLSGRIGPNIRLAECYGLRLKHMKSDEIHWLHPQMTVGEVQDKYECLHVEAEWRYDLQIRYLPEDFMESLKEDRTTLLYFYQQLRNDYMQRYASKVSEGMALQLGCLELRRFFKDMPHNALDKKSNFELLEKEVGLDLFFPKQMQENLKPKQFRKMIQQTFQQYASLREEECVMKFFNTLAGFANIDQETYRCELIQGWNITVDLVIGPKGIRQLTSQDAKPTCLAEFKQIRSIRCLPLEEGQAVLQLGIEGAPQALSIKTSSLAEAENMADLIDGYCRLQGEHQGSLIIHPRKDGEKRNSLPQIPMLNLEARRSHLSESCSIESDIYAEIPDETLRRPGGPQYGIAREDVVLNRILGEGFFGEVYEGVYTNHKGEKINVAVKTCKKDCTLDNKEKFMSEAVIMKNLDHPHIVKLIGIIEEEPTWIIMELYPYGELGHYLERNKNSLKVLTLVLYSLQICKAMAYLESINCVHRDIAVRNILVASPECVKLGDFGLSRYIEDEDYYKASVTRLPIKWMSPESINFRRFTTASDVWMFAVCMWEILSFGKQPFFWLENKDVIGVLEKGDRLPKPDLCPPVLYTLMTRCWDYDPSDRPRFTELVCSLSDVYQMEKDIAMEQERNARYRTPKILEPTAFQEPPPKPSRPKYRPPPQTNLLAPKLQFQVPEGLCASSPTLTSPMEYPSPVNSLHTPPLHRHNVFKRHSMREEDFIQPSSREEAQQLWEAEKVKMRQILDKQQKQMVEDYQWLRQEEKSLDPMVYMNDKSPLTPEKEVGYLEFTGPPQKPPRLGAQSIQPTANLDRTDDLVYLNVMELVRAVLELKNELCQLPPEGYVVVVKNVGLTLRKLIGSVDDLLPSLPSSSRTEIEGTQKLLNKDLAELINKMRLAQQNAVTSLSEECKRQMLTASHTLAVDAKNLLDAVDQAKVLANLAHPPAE
T1 sequence (Q9UBE0 whole entry): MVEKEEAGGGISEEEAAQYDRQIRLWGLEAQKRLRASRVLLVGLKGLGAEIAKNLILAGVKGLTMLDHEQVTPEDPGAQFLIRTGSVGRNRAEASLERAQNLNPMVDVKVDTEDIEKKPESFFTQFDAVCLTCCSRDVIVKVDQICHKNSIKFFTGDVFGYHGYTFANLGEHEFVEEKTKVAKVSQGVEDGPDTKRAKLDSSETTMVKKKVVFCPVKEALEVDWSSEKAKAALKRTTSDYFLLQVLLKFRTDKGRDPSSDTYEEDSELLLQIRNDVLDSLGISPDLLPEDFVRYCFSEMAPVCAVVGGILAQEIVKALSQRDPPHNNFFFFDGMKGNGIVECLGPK
T1 sequence (Q9UBT2 whole entry): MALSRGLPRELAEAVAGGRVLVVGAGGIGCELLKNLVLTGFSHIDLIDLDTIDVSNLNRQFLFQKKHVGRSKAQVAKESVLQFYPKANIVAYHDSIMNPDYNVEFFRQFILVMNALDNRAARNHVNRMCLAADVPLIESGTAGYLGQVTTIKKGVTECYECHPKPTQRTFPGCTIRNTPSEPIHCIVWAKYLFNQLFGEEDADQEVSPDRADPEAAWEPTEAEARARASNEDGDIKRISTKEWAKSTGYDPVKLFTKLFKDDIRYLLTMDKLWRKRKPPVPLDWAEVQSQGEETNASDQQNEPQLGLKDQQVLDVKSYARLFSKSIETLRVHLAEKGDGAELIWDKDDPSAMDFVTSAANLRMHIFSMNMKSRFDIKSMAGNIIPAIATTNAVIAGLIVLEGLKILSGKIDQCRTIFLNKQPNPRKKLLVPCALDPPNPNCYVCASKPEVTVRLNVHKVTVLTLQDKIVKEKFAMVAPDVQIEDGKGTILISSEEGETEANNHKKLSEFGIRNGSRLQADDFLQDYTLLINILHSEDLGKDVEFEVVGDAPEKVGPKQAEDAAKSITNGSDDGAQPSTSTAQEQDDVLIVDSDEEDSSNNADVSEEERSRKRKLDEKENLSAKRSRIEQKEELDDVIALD
T2 sequence (P98170 whole entry): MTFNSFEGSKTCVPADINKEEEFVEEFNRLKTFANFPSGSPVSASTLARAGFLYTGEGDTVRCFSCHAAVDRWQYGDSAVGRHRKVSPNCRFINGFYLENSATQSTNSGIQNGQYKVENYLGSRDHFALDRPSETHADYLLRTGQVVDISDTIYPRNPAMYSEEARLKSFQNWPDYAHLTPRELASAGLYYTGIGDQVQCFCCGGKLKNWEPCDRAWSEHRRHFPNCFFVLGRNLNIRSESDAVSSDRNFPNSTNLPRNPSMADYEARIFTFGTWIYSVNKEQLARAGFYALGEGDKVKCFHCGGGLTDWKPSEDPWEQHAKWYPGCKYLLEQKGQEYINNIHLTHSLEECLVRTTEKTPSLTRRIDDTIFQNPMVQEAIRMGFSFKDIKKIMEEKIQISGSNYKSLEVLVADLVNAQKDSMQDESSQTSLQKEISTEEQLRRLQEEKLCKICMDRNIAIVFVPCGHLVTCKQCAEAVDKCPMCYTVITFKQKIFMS
Estrogen receptor beta, sequence (Q92731 whole entry): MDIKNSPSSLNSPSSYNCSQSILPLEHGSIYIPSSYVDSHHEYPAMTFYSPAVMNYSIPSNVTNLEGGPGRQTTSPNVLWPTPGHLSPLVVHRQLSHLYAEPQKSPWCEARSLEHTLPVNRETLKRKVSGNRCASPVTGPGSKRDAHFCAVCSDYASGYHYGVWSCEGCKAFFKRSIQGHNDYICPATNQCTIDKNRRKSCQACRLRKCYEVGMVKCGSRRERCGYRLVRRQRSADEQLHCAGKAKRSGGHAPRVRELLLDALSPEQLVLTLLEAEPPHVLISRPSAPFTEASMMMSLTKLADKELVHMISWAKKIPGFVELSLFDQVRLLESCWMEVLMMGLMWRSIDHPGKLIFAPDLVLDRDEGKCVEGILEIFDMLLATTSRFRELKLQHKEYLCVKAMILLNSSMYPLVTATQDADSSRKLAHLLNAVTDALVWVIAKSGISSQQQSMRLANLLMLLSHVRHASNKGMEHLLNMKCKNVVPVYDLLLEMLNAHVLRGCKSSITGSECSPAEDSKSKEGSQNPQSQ

In the case of `Cc1cccc(C(=O)N2CCN(c3ccc(C(F)(F)F)cn3)CC2)c1C`, the EC50 [1] is reported as 9.85 µM (active).

For `COc1cc(CNCCO)cc(Cl)c1OCc1ccc(Cl)cc1Cl`, the AC50 [2] was 13.9 µM (active), the AC50 [3] was 15.6 µM (active) and the AC50 [4] was 11.2 µM (active). For the same compound, the AC50 [5] was 43.2 µM (active), the CC50 [6] was 14.1 µM (active) and the CC50 [7] was 12.5 µM (active). For the same compound, the AC50 [8] was 8.94 µM (active), the IC50 [9] was 24.5 µM (active) and the CC50 [10] was 15.1 µM (active).

With `COc1ccc(CSc2nnc(Cc3sc(-c4ccccc4)nc3-c3ccccc3)o2)cc1` the EC50 [1] was 5.33 µM (active).

For `O=C(CN1CCN(c2ccccc2F)CC1)Nc1cccnc1Cl`, the EC50 [11] was > 71.5 µM (inactive).

For `CCN1CCc2c(sc(N)c2C#N)C1`, the IC50 [12] was 23.6 µM (not active) and the IC50 [13] was 6.55 µM (not active).

With `CCOC(=O)/C(=C/C=C1\Sc2cc(OCC)c(OCC)cc2N1CC)C(C)=O` the EC50 [11] was 0.165 µM (active).

With `CCN(CC)C(=O)CSc1nc(N)c2c3c(sc2n1)CC(C)CC3` (configuration not stated) the IC50 [12] was > 69.5 µM (not active) and the CC50 [14] was 8.74 µM (active).

For `CN(C)CCN1CCc2ccccc21`, the IC50 [12] was 6.46 µM (active) and the IC50 [13] was 0.0579 µM (not active).

In the case of `Cc1ccc(NC(=O)Cn2nc(C(=O)Nc3ccc(C)cc3)ccc2=O)cc1`, the IC50 [15] is reported as 18.3 µM (active) and the IC50 [16] is reported as 30.8 µM (active).

With `C=CCSc1nnc(-c2ccc(Cl)cc2Cl)o1` the IC50 [17] was > 100 µM (not active), the IC50 [18] was > 100 µM (inactive) and the IC50 [19] was 7.91 µM (active).

For `Cc1cc(OCC(=O)Nc2ccc(N3CCN(C(=O)c4ccco4)CC3)cc2)cc(C)c1Cl`, the IC50 [12] was 5.96 µM (active).

With `CC1(c2ccc(Cl)cc2Cl)OCC(Cn2ccnc2)O1` (configuration not stated) the EC50 [20] was 2.37 µM (active).

With `Cc1c(Cl)cccc1NC(S)=NCC(c1cccnc1)N(C)C` (configuration not stated) the EC50 [20] was 0.0013 µM (active).
